# Reference: ChEMBL document CHEMBL1926642, “Relevance of the C-5 position to schweinfurthin induced cytotoxicity” (2011)
# What was measured:
# Format in all cases: functional
# [1] = test system: RXF 393; test: Growth inhibition of human RXF393 cells after 48 hrs by sulforhodamine B assay; conditions: RXF 393, 48 h; for TGI: read-out: pTGI (converted)
# [2] = test system: MDA-MB-435; test: Growth inhibition of human MDA-MB-435 cells after 48 hrs by sulforhodamine B assay; conditions: MDA-MB-435, 48 h; for TGI: read-out: pTGI (converted)
# [3] = test system: A549; test: Growth inhibition of human A549 cells after 48 hrs by sulforhodamine B assay; conditions: A549, 48 h; for TGI: read-out: pTGI (converted)
# [4] = test system: BT-549; test: Growth inhibition of human BT549 cells after 48 hrs by sulforhodamine B assay; conditions: BT-549, 48 h; for TGI: read-out: pTGI (converted)
# [5] = test system: CCRF-CEM; test: Growth inhibition of human CCRF-CEM cells after 48 hrs by sulforhodamine B assay; conditions: for TGI: read-out: pTGI (converted)
# [6] = test system: DU-145; test: Growth inhibition of human DU145 cells after 48 hrs by sulforhodamine B assay; conditions: DU-145, 48 h; for TGI: read-out: pTGI (converted)
# [7] = test system: SF-539; test: Growth inhibition of human SF539 cells after 48 hrs by sulforhodamine B assay; conditions: SF-539, 48 h; for TGI: read-out: pTGI (converted)
# [8] = test system: MOLT-4; test: Growth inhibition of human MOLT4 cells after 48 hrs by sulforhodamine B assay; conditions: MOLT-4, 48 h; for TGI: read-out: pTGI (converted)
# [9] = test system: OVCAR-8; test: Growth inhibition of human OVCAR8 cells after 48 hrs by sulforhodamine B assay; conditions: OVCAR-8, 48 h; for TGI: read-out: pTGI (converted)
# [10] = test system: U-251; test: Growth inhibition of human U251 cells after 48 hrs by sulforhodamine B assay; conditions: U-251, 48 h; for TGI: read-out: pTGI (converted)
# [11] = test system: ACHN; test: Growth inhibition of human ACHN cells after 48 hrs by sulforhodamine B assay; conditions: for TGI: read-out: pTGI (converted)
# [12] = test system: SW-620; test: Growth inhibition of human SW620 cells after 48 hrs by sulforhodamine B assay; conditions: SW-620, 48 h; for TGI: read-out: pTGI (converted)
# [13] = test system: PC-3; test: Growth inhibition of human PC3 cells after 48 hrs by sulforhodamine B assay; conditions: PC-3, 48 h; for CC50: read-out: pLC50 (the source's name) (converted); for TGI: read-out: pTGI (converted)
# [14] = test system: TK-10; test: Growth inhibition of human TK10 cells after 48 hrs by sulforhodamine B assay; conditions: TK-10, 48 h; for TGI: read-out: pTGI (converted)
# [15] = test system: OVCAR-5; test: Growth inhibition of human OVCAR5 cells after 48 hrs by sulforhodamine B assay; conditions: OVCAR-5, 48 h; for TGI: read-out: pTGI (converted)
# [16] = Growth inhibition of human Hs 578T cells after 48 hrs by sulforhodamine B assay; conditions: for CC50: read-out: pLC50 (the source's name) (converted); for TGI: read-out: pTGI (converted)
# [17] = test system: MDA-MB-468; test: Growth inhibition of human MDA-MB-468 cells after 48 hrs by sulforhodamine B assay; conditions: MDA-MB-468, 48 h; for TGI: read-out: pTGI (converted)
# [18] = test system: Malme-3M; test: Growth inhibition of human MALME-3M cells after 48 hrs by sulforhodamine B assay; conditions: for TGI: read-out: pTGI (converted)
# [19] = test system: A498; test: Growth inhibition of human A498 cells after 48 hrs by sulforhodamine B assay; conditions: A498, 48 h; for TGI: read-out: pTGI (converted)
# [20] = test system: HCT-116; test: Growth inhibition of human HCT116 cells after 48 hrs by sulforhodamine B assay; conditions: HCT-116, 48 h; for TGI: read-out: pTGI (converted)
# [21] = test system: HT-29; test: Growth inhibition of human HT-29 cells after 48 hrs by sulforhodamine B assay; conditions: HT-29, 48 h; for TGI: read-out: pTGI (converted)
# [22] = test system: UO-31; test: Growth inhibition of human UO31 cells after 48 hrs by sulforhodamine B assay; conditions: UO-31, 48 h; for TGI: read-out: pTGI (converted)
# [23] = test system: MDA-MB-231; test: Growth inhibition of human MDA-MB-231/ATCC cells after 48 hrs by sulforhodamine B assay; conditions: MDA-MB-231, 48 h; for CC50: read-out: pLC50 (the source's name) (converted); for TGI: read-out: pTGI (converted)
# [24] = test system: HOP-92; test: Growth inhibition of human HOP92 cells after 48 hrs by sulforhodamine B assay; conditions: HOP-92, 48 h; for TGI: read-out: pTGI (converted)
# [25] = test system: HOP-62; test: Growth inhibition of human HOP62 cells after 48 hrs by sulforhodamine B assay; conditions: HOP-62, 48 h; for TGI: read-out: pTGI (converted)
# [26] = test system: NCI-H23; test: Growth inhibition of human NCI-H23 cells after 48 hrs by sulforhodamine B assay; conditions: NCI-H23, 48 h; for TGI: read-out: pTGI (converted)
structure (smiles),measurement,setting,value
COCOc1cc(/C=C/c2cc(C=O)c3c(c2)C[C@@H]2C(C)(C)[C@H](O)CC[C@@]2(C)O3)cc(OC)c1C/C=C(\C)CCC=C(C)C,GI50,[1],0.309 µM
same,LC50 (50% lethal concentration),[1],12.3 µM
same,TGI,[1],1.32 µM
same,GI50,[2],6.76 µM
same,LC50,[2],> 100 µM
same,TGI,[2],69.2 µM
same,LC50,[3],> 100 µM
same,GI50,[3]; read-out: GI50,7.8 µM
same,GI50,[3]; read-out: pGI50 (converted),7.76 µM
same,TGI,[3],> 100 µM
same,GI50,[4],3.89 µM
same,LC50,[4],> 100 µM
same,TGI,[4],63.1 µM
same,GI50,[5],4.37 µM
same,LC50,[5],> 100 µM
same,TGI,[5],> 100 µM
same,GI50,[6],13.5 µM
same,LC50,[6],> 100 µM
same,TGI,[6],> 100 µM
same,GI50,[7],0.891 µM
same,LC50,[7],> 100 µM
same,TGI,[7],12.9 µM
same,GI50,[8],2.82 µM
same,LC50,[8],> 100 µM
same,TGI,[8],13.2 µM
same,GI50,[9],17 µM
same,LC50,[9],> 100 µM
same,TGI,[9],61.7 µM
same,GI50,[10],1.74 µM
same,LC50,[10],> 100 µM
same,TGI,[10],60.3 µM
same,GI50,[11],7.94 µM
same,LC50,[11],> 100 µM
same,TGI,[11],> 100 µM
same,GI50,[12],10.2 µM
same,LC50,[12],> 100 µM
same,TGI,[12],44.7 µM
same,GI50,[13],8.13 µM
same,CC50,[13],> 100 µM
same,TGI,[13],> 100 µM
same,GI50,[14],25.1 µM
same,LC50,[14],> 100 µM
same,TGI,[14],> 100 µM
same,GI50,[15],11.7 µM
same,LC50,[15],> 100 µM
same,TGI,[15],> 100 µM
same,GI50,[16],1.74 µM
same,CC50,[16],> 100 µM
same,TGI,[16],> 100 µM
same,GI50,[17],4.9 µM
same,LC50,[17],> 100 µM
same,TGI,[17],46.8 µM
same,GI50,[18],7.94 µM
same,LC50,[18],> 100 µM
same,TGI,[18],95.5 µM
same,GI50,[19],7.59 µM
same,LC50,[19],> 100 µM
same,TGI,[19],> 100 µM
same,GI50,[20],6.61 µM
same,LC50,[20],> 100 µM
same,TGI,[20],35.5 µM
same,GI50,[21],4.37 µM
same,LC50 (concentration killing 50% of cells),[21],> 100 µM
same,TGI,[21],> 100 µM
same,GI50,[22],4.07 µM
same,LC50,[22],> 100 µM
same,TGI,[22],> 100 µM
same,GI50,[23],3.39 µM
same,CC50,[23],> 100 µM
same,TGI,[23],15.8 µM
same,GI50,[24],15.8 µM
same,LC50,[24],> 100 µM
same,TGI,[24],> 100 µM
same,GI50,[25],4.9 µM
same,LC50,[25],> 100 µM
same,TGI,[25],> 100 µM
same,GI50,[26],11 µM
same,LC50,[26],> 100 µM
same,TGI,[26],> 100 µM
COCOc1cc(/C=C/c2cc(CO)c3c(c2)C[C@@H]2C(C)(C)[C@H](O)CC[C@@]2(C)O3)cc(OC)c1C/C=C(\C)CCC=C(C)C,GI50,[1],0.0661 µM
same,LC50 (50% lethal concentration),[1],2.69 µM
same,TGI,[1],0.355 µM
same,GI50,[2],1.38 µM
same,LC50,[2],> 100 µM
same,TGI,[2],56.2 µM
same,LC50,[3],> 100 µM
same,GI50,[3]; read-out: GI50,1.41 µM
same,GI50,[3]; read-out: pGI50 (converted),0.977 µM
same,TGI,[3],26.9 µM
same,GI50,[4],1.38 µM
same,LC50,[4],50.1 µM
same,TGI,[4],17.8 µM
same,GI50,[5],1.02 µM
same,LC50,[5],> 100 µM
same,TGI,[5],> 100 µM
same,GI50,[6],3.8 µM
same,LC50,[6],52.5 µM
same,TGI,[6],20 µM
same,GI50,[7],0.141 µM
same,LC50,[7],> 100 µM
same,TGI,[7],12.6 µM
same,GI50,[8],0.398 µM
same,LC50,[8],> 100 µM
same,TGI,[8],> 100 µM
same,GI50,[9],11 µM
same,LC50,[9],77.6 µM
same,TGI,[9],29.5 µM
same,GI50,[10],0.275 µM
same,LC50,[10],53.7 µM
same,TGI,[10],15.5 µM
same,GI50,[11],2.24 µM
same,LC50,[11],> 100 µM
same,TGI,[11],50.1 µM
same,GI50,[12],1.95 µM
same,LC50,[12],67.6 µM
same,TGI,[12],13.5 µM
same,GI50,[13],0.912 µM
same,CC50,[13],> 100 µM
same,TGI,[13],> 100 µM
same,GI50,[14],15.8 µM
same,LC50,[14],> 100 µM
same,TGI,[14],41.7 µM
same,GI50,[15],6.61 µM
same,LC50,[15],> 100 µM
same,TGI,[15],41.7 µM
same,GI50,[16],0.55 µM
same,CC50,[16],> 100 µM
same,TGI,[16],> 100 µM
same,GI50,[17],1.78 µM
same,LC50,[17],49 µM
same,TGI,[17],12.3 µM
same,GI50,[18],11.7 µM
same,LC50,[18],> 100 µM
same,TGI,[18],67.6 µM
same,GI50,[19],0.933 µM
same,LC50,[19],50.1 µM
same,TGI,[19],19.5 µM
same,GI50,[20],3.47 µM
same,LC50,[20],45.7 µM
same,TGI,[20],18.2 µM
same,GI50,[21],2.04 µM
same,LC50 (concentration killing 50% of cells),[21],> 100 µM
same,TGI,[21],19.1 µM
same,GI50,[22],0.501 µM
same,LC50,[22],93.3 µM
same,TGI,[22],15.1 µM
same,GI50,[23],1.62 µM
same,CC50,[23],57.5 µM
same,TGI,[23],14.5 µM
same,GI50,[24],2.57 µM
same,LC50,[24],45.7 µM
same,TGI,[24],16.6 µM
same,GI50,[25],0.537 µM
same,LC50,[25],64.6 µM
same,TGI,[25],11 µM
same,GI50,[26],4.17 µM
same,LC50,[26],74.1 µM
same,TGI,[26],24.5 µM
